Inhibition of growth and IC50 data for ten compounds are collected here from US12692244B2, “Griseofulvin 4 position etherified derivatives and their application” (Yan'an University, priority 2023, dated 2026).

Converted amounts (≈) assume the structure as drawn. Where only a bound is given, the exact number is not on record here.

Holding throughout (assay): Antifungal activity assay, mycelial growth inhibitory rate method
What all share (type): cell-based

For assay [1], the system named is Alternaria alternate. The settings on record: for inhibition of growth at 100 µg/mL: 100 μg/mL in PDA medium, 28° C., 48-72 h; for IC50: mycelial growth, PDA medium, 100-0.0488 μg/mL. On the procedure: (§1) The antifungal activities were evaluated against seven plant phytopathogenic fungi, by the mycelial growth inhibitory rate method, according to a reported method (Yu-Bin Bai, Meng Zhang, Ding Li, Yu Zhao, Liang-Zhu Huang, and Jin-Ming Gao. J. Agric. Food. Chem., 2023, 71, 16, 6236-6248). The target phytopathogenic fungi are Cytospora sp., Alternaria solani Sorauer, Alternaria alternate, Botrytis sp., Botrytis cinerea Pers., Colletotrichum gloeosporioides and Botryosphaeria dothidea. 100 μg/mL PDA mediums were prepared at 50° C. The petri dishes were incubated and cultivated at 28° C. for 48-72 h. Each sample was measured in triplicate, each colony diameter of all triplicates was measured 4 times by cross bracketing method. Hymexazol (Hym) as the positive control and the result of inhibition rate was calculated according to the formula: [formula] • where C represents the diameter of fungal growth on untreated PDA, and T represents the diameter of fungal growth on treated PDA. […] PDA mediums with different compound concentrations (100, 50, 25, 12.5, 6.25, 3.125, 1.5625, 0.78125, 0.3906, 0.1953, 0.0977, 0.0488 μg/mL) was prepared and their half inhibitory concentration (IC50) values were accurately tested. All half inhibitory concentration results are shown in Table 2 and Hymexazol (Hym) as the positive control.

Assay [2] deals with Alternaria solani Sorauer. Particulars: for inhibition of growth at 100 µg/mL: 100 μg/mL in PDA medium, 28° C., 48-72 h, read-out: Average values of antifungal rate (%) A.s.; for IC50: mycelial growth, PDA medium, 100-0.0488 μg/mL. As for the experimental part: as §1
In assay [3] the test system is Botryosphaeria dothidea. The settings on record: for inhibition of growth at 100 µg/mL: 100 μg/mL in PDA medium, 28° C., 48-72 h, read-out: Average values of antifungal rate (%) B.d.; for IC50: mycelial growth, PDA medium, 100-0.0488 μg/mL. As for the experimental part:
as §1

In assay [4] the test system is Botrytis cinerea Pers. Particulars: for inhibition of growth at 100 µg/mL: 100 μg/mL in PDA medium, 28° C., 48-72 h, read-out: Average values of antifungal rate (%) B.c.; for IC50: mycelial growth, PDA medium, 100-0.0488 μg/mL. As for the experimental part:
as §1

Assay [5] deals with Botrytis sp. The settings on record: for inhibition of growth at 100 µg/mL: 100 μg/mL in PDA medium, 28° C., 48-72 h, read-out: Average values of antifungal rate (%) B.s.; for IC50: mycelial growth, PDA medium, 100-0.0488 μg/mL. As for the experimental part:
as §1

The subject of assay [6] is Colletotrichum gloeosporioides. The settings on record: for inhibition of growth at 100 µg/mL: 100 μg/mL in PDA medium, 28° C., 48-72 h, read-out: Average values of antifungal rate (%) C.g.; for IC50: mycelial growth, PDA medium, 100-0.0488 μg/mL. As for the experimental part:
as §1

The test system of assay [7] is Cytospora sp. The settings on record: for inhibition of growth at 100 µg/mL: 100 μg/mL in PDA medium, 28° C., 48-72 h, read-out: Average values of antifungal rate (%) C.s.; for IC50: mycelial growth, PDA medium, 100-0.0488 μg/mL. As for the experimental part: as §1

For the compound `C#CCOc1cc(OC)c(Cl)c2c1C(=O)[C@@]1(O2)C(OC)=CC(=O)C[C@H]1C` [Compound 01, 4 Position Propargyl Griseofulvin Derivative], the inhibition of growth at 100 µg/mL in assay [1] was 97.4%; in assay [2], 100%; in assay [3], 98%; in assay [4] it was 98.6%; in assay [5] it was 100%; in assay [6] it was 91.3%. Moreover, the inhibition of growth at 100 µg/mL in assay [7] was 96.6%. Further, the IC50 in assay [1] was determined as 1.28 µg/mL (≈ 3.4 µM); in assay [2], 1.32 ± 0.01 µg/mL (≈ 3.5 µM); in assay [3], 1.35 ± 0.07 µg/mL (≈ 3.58 µM); in assay [4] it was 2.04 ± 0.12 µg/mL (≈ 5.41 µM); in assay [5] it was 2.84 ± 0.22 µg/mL (≈ 7.54 µM); in assay [6], 0.06 ± 0.02 µg/mL (≈ 0.159 µM). In addition, the IC50 in assay [7] worked out at 1.84 ± 0.01 µg/mL (≈ 4.88 µM).

Turning to `C=CCOc1cc(OC)c(Cl)c2c1C(=O)[C@@]1(O2)C(OC)=CC(=O)C[C@H]1C` [Compound 02, 4 Position Allyl Griseofulvin Derivative], the inhibition of growth at 100 µg/mL was found to be 49.1% in assay [1]; 77% in assay [2]; 51.7% in assay [3]; 56.9% in assay [4]; 85.2% in assay [5]; 70.1% in assay [6]. In assay [7], the inhibition of growth at 100 µg/mL was determined as 52.7%. Besides, the IC50 is more than 100 µg/mL in assay [1]; 14.9 ± 5.66 µg/mL (≈ 39.3 µM) in assay [2]; more than 50 µg/mL in assay [3]; more than 50 µg/mL in assay [4]; 3.93 ± 0.8 µg/mL (≈ 10.4 µM) in assay [5]; 4.05 ± 0.46 µg/mL (≈ 10.7 µM) in assay [6]. The same compound returned an IC50 in assay [7] of more than 50 µg/mL.

In the case of `CCCCOc1cc(OC)c(Cl)c2c1C(=O)[C@@]1(O2)C(OC)=CC(=O)C[C@H]1C` [Compound 03, 4 Position Butyl Griseofulvin Derivative], the inhibition of growth at 100 µg/mL amounted to 7.41% in assay [1]; 26.9% in assay [2]; 31.8% in assay [3]; 19.1% in assay [4]; 62.3% in assay [5]; 68.4% in assay [6]. Moreover, the inhibition of growth at 100 µg/mL in assay [7] came to 29.1%. Also, the IC50 in assay [1] is more than 100 µg/mL; in assay [2], more than 100 µg/mL; in assay [3], more than 100 µg/mL; in assay [4], more than 100 µg/mL; in assay [5] it was more than 25 µg/mL; in assay [6], more than 25 µg/mL. In addition, the half-maximal inhibitory concentration (IC50) in assay [7] is more than 100 µg/mL.

For `COC1=CC(=O)C[C@@H](C)[C@]12Oc1c(Cl)c(OC)cc(OCC3CC3)c1C2=O` [Compound 04, 4 Position Cyclopropylmethyl Griseofulvin Derivative], the inhibition of growth at 100 µg/mL in assay [1] is 41.4%; in assay [2] it was 70.5%; in assay [3] it was 26.2%; in assay [4] it was 50.7%; in assay [5], 69.8%; in assay [6], 48%. For the same compound, in assay [7], the inhibition of growth at 100 µg/mL worked out at 65.5%. The 50% inhibitory concentration (IC50) in assay [1] is more than 25 µg/mL; in assay [2], 17.85 ± 0.04 µg/mL (≈ 45.4 µM); in assay [3] it was more than 100 µg/mL; in assay [4] it was more than 100 µg/mL; in assay [5], more than 100 µg/mL; in assay [6], more than 100 µg/mL. In assay [7], this compound registered an IC50 of more than 50 µg/mL.

As to `COCOc1cc(OC)c(Cl)c2c1C(=O)[C@@]1(O2)C(OC)=CC(=O)C[C@H]1C` [Compound 05, 4 Position Methoxymethyl Griseofulvin Derivative], the inhibition of growth at 100 µg/mL in assay [1] stood at 49.1%; in assay [2] it was 75.4%; in assay [3], 58.4%; in assay [4], 66%; in assay [5], 88.6%; in assay [6], 71.7%. Besides, the inhibition of growth at 100 µg/mL in assay [7] amounted to 73.7%. The IC50 in assay [1] was more than 50 µg/mL; in assay [2], 83.2 ± 14.5 µg/mL (≈ 217 µM); in assay [3], more than 25 µg/mL; in assay [4], more than 25 µg/mL; in assay [5], 31.6 ± 7.3 µg/mL (≈ 82.4 µM); in assay [6], 16.1 ± 1.3 µg/mL (≈ 42.2 µM). The compound also showed a half-inhibitory concentration (IC50) in assay [7] of 81.4 ± 1.23 µg/mL (≈ 213 µM).

In the case of `COC1=CC(=O)C[C@@H](C)[C@]12Oc1c(Cl)c(OC)cc(OCc3ccccc3F)c1C2=O` [Compound 06, 4 Position 2-Fluorobenzyl Griseofulvin Derivative], the inhibition of growth at 100 µg/mL in assay [1] stood at 3.45%; in assay [2], 13.1%; in assay [3], 18.1%; in assay [4] it was 55.6%; in assay [5] it was 69.8%; in assay [6], 75.6%. For the same compound, the inhibition of growth at 100 µg/mL in assay [7] is 6.08%. In addition, the IC50 in assay [1] was more than 100 µg/mL; in assay [2], more than 100 µg/mL; in assay [3] it was more than 100 µg/mL; in assay [4], more than 50 µg/mL; in assay [5], more than 25 µg/mL; in assay [6], 1.92 ± 0.19 µg/mL (≈ 4.3 µM). The compound also gave an IC50 in assay [7] of more than 100 µg/mL.

Consider `COC1=CC(=O)C[C@@H](C)[C@]12Oc1c(Cl)c(OC)cc(OCc3ccsc3)c1C2=O` [Compound 07, 4 Position 3-Methylthiophene Griseofulvin Derivative], for which the inhibition of growth at 100 µg/mL was found to be 43.1% in assay [1]; 62.3% in assay [2]; 42.3% in assay [3]; 59.7% in assay [4]; 73.8% in assay [5]; 72.4% in assay [6]. Moreover, in assay [7], the inhibition of growth at 100 µg/mL was 54.7%. Moreover, the IC50 in assay [1] is more than 100 µg/mL; in assay [2], more than 50 µg/mL; in assay [3], more than 50 µg/mL; in assay [4], more than 25 µg/mL; in assay [5], 17.6 ± 0.27 µg/mL (≈ 40.4 µM); in assay [6], 3.82 ± 0.09 µg/mL (≈ 8.78 µM). This compound also returned an IC50 in assay [7] of more than 50 µg/mL.

In the case of `COC1=CC(=O)C[C@@H](C)[C@]12Oc1c(Cl)c(OC)cc(OCc3ccc(C(C)=O)cc3)c1C2=O` [Compound 08, 4 Position 1-(4-(Methyl)Phenyl)-Ethanone Griseofulvin Derivative], the inhibition of growth at 100 µg/mL was 2.59% in assay [1]; 0% in assay [2]; 4.7% in assay [3]; 43.1% in assay [4]; 47.6% in assay [5]; 26% in assay [6]. Further, in assay [7], the inhibition of growth at 100 µg/mL was 7.43%. Also, the half-inhibitory concentration (IC50) in assay [1], in assay [2], in assay [3], in assay [4], in assay [5] and in assay [6] was more than 100 µg/mL each time. Moreover, the concentration for half-maximal inhibition (IC50) in assay [7] is more than 100 µg/mL.

On to `COC1=CC(=O)C[C@@H](C)[C@]12Oc1c(Cl)c(OC)cc(OC3CCCC3)c1C2=O` [Compound 09, 4 Position Cyclopentyl Griseofulvin Derivative], for which the inhibition of growth at 100 µg/mL in assay [1] was 31%; in assay [2], 45.9%; in assay [3] it was 34.2%; in assay [4] it was 59.7%; in assay [5] it was 63.1%; in assay [6] it was 40.9%. For the same compound, in assay [7], the inhibition of growth at 100 µg/mL is 59.5%. For the same compound, the half-inhibitory concentration (IC50) is more than 100 µg/mL in assay [1]; more than 100 µg/mL in assay [2]; more than 100 µg/mL in assay [3]; more than 25 µg/mL in assay [4]; more than 25 µg/mL in assay [5]; more than 100 µg/mL in assay [6]. Further, the IC50 in assay [7] was more than 25 µg/mL.

Turning to `Cc1cc(O)no1` [Hym, Hymexazol, reference compound], the inhibition of growth at 100 µg/mL in assay [1] came to 92.6%; in assay [2] it was 97.4%; in assay [3], 55.6%; in assay [4], 100%; in assay [5], 92.5%; in assay [6] it was 43.2%. Also, in assay [7], the inhibition of growth at 100 µg/mL is 48%. Further, the half-inhibitory concentration (IC50) is 15.58 ± 0.13 µg/mL (≈ 157 µM) in assay [1]; 45.3 ± 14 µg/mL (≈ 457 µM) in assay [2]; more than 50 µg/mL in assay [3]; more than 6.25 µg/mL in assay [4]; 13.5 ± 1.89 µg/mL (≈ 136 µM) in assay [5]; more than 100 µg/mL in assay [6]. Also, in assay [7], the half-inhibitory concentration (IC50) is more than 100 µg/mL.

A word on the IC50: it is the point on the concentration scale where inhibition reaches its midpoint.
